Data published in ChEMBL document CHEMBL5653615 (J Biol Chem, 2013).

Assays:
[1] = target: T1, Tyrosine-protein kinase TXK (Homo sapiens) (UniProt P42681); experiment: Inhibition of human TXK at 18.6 nM by HotSpot assay relative to control
T1 sequence (whole entry): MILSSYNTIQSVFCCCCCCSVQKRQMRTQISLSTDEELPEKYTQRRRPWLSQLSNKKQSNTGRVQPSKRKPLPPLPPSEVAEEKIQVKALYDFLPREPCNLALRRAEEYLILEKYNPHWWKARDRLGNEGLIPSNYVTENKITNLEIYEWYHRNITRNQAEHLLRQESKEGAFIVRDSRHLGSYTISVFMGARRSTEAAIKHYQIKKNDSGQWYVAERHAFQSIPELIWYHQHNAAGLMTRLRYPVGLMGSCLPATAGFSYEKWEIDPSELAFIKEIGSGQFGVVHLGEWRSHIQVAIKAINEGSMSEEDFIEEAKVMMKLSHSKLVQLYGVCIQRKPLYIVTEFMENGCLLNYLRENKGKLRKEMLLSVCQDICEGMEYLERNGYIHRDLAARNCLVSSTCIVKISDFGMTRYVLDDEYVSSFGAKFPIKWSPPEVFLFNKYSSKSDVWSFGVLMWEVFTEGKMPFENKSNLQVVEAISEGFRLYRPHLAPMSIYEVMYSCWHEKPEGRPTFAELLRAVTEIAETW

[2] = target: Calcium/calmodulin-dependent protein kinase type II subunit gamma (Homo sapiens) (UniProt Q13555); experiment: Inhibition of human CAMK2g at 18.6 nM by HotSpot assay relative to control
Chain of Calcium/calmodulin-dependent protein kinase type II subunit gamma (Homo sapiens) (Q13555 whole entry): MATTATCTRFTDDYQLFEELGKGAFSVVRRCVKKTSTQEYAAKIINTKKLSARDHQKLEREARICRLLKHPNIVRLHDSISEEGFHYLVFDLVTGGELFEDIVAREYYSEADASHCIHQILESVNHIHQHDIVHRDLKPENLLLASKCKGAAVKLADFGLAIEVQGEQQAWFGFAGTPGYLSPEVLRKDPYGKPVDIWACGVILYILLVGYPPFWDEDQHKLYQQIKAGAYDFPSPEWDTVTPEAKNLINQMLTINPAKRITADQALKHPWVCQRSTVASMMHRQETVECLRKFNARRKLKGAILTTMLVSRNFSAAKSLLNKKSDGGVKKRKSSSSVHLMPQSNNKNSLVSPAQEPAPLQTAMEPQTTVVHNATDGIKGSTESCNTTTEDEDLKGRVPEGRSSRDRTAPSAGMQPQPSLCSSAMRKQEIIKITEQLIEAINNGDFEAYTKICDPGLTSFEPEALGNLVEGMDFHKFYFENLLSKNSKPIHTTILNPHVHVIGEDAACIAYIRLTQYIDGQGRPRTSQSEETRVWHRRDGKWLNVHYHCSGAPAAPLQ

[3] = target: T2, Inhibitor of nuclear factor kappa-B kinase subunit epsilon (Homo sapiens) (UniProt Q14164); experiment: Inhibition of human IKKe at 18.6 nM by HotSpot assay relative to control
T2 sequence (whole entry): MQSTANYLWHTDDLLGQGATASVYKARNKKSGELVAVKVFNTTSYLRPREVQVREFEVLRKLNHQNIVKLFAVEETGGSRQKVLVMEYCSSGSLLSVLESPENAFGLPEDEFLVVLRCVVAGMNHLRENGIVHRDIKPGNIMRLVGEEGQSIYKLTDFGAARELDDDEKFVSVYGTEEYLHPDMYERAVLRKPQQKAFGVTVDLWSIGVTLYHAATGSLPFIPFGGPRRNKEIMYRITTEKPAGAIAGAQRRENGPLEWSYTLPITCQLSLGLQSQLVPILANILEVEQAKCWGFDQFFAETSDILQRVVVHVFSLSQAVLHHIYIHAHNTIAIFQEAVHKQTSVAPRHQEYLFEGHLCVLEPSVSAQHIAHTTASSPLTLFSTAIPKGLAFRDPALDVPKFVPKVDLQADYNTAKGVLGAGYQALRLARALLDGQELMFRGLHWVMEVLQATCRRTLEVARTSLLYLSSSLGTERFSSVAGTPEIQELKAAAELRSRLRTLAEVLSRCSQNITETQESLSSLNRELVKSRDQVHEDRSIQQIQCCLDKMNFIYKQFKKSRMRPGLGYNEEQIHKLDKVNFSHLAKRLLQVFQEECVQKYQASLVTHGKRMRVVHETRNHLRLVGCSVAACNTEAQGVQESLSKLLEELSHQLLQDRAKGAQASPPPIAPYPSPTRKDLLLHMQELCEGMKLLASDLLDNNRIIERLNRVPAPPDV

[4] = target: Casein kinase I isoform gamma-1 (Homo sapiens) (UniProt Q9HCP0); experiment: Inhibition of human CK1g1 at 18.6 nM by HotSpot assay relative to control
Chain of Casein kinase I isoform gamma-1 (Homo sapiens) (Q9HCP0 whole entry, looked up, canonical isoform): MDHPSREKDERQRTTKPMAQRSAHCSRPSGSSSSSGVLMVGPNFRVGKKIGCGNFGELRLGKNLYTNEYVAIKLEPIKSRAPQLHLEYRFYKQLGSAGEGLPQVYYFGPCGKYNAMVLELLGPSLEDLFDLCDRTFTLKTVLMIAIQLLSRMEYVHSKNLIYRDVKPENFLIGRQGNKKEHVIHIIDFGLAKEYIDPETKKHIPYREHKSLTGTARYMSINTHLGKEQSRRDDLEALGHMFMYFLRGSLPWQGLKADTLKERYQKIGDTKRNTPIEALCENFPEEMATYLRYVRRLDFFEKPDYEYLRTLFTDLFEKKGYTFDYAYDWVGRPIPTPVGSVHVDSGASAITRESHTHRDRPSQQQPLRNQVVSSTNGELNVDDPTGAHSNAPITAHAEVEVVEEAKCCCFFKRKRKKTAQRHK

[5] = target: T3, cGMP-dependent protein kinase 1 (Homo sapiens) (UniProt Q13976); experiment: Inhibition of human PKG1b at 18.6 nM by HotSpot assay relative to control
T3 sequence (whole entry): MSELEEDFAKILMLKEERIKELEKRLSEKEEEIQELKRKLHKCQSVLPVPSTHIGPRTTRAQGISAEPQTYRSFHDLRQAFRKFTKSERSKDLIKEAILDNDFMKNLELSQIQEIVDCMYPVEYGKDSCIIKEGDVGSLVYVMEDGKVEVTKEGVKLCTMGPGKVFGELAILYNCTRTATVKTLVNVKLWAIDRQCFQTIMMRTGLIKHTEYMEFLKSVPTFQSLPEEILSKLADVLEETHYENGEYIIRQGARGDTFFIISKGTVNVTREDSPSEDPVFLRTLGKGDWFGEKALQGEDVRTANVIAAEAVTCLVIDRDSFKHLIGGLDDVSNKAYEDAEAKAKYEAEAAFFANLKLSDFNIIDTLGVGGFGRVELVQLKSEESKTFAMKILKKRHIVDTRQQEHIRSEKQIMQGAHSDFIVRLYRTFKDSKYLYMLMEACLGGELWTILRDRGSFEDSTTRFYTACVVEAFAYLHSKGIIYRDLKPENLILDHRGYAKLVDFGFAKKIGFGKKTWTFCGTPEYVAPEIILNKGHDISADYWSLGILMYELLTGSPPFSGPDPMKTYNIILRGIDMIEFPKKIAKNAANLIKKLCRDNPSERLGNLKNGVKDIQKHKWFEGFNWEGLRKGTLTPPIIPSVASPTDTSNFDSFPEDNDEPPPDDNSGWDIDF

[6] = target: MAP/microtubule affinity-regulating kinase 3 (Homo sapiens) (UniProt P27448); experiment: Inhibition of human MARK3 at 1.82 nM by HotSpot assay relative to control
Chain of MAP/microtubule affinity-regulating kinase 3 (Homo sapiens) (P27448 whole entry, looked up): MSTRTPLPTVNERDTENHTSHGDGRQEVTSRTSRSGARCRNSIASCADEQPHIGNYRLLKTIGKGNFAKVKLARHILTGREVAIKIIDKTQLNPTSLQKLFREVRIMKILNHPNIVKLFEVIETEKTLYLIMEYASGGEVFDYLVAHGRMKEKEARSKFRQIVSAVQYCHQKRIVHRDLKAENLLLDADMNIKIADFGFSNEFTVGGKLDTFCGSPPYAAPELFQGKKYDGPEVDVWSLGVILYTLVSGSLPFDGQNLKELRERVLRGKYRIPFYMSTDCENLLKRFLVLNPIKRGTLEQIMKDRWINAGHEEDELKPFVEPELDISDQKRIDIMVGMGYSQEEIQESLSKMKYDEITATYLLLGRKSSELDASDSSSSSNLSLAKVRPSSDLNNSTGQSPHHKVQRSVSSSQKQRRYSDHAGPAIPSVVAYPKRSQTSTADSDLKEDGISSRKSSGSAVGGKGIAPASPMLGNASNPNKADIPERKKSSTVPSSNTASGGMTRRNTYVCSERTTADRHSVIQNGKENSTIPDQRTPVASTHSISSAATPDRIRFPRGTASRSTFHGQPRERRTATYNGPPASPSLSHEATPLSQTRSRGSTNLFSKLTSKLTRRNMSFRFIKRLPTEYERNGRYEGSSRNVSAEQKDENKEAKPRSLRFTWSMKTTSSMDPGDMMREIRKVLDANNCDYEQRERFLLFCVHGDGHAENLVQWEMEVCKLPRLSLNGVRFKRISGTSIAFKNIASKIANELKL

[7] = target: Protein kinase C gamma type (Homo sapiens) (UniProt P05129); experiment: Inhibition of human PKCg at 1.82 nM by HotSpot assay relative to control
[8] = target: T4, Serine/threonine-protein kinase Sgk1 (Homo sapiens) (UniProt O00141); experiment: Inhibition of human SGK1 at 1.82 nM by HotSpot assay relative to control
T4 sequence (whole entry): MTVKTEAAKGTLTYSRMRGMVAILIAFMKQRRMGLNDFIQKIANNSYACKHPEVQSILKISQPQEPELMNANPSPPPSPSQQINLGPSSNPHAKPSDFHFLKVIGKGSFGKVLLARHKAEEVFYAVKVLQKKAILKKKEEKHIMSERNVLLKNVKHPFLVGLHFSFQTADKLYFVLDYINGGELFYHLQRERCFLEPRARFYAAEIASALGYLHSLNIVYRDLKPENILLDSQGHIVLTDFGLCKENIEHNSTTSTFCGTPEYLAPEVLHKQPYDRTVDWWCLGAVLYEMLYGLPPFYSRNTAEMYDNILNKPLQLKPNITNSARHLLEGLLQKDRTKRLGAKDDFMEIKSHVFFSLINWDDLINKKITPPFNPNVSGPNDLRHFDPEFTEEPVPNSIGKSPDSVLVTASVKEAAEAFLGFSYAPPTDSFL

[9] = target: Activated CDC42 kinase 1 (Homo sapiens) (UniProt Q07912); experiment: Inhibition of human ACK1 at 1.82 nM by HotSpot assay relative to control
Chain of Activated CDC42 kinase 1 (Homo sapiens) (Q07912 whole entry, looked up): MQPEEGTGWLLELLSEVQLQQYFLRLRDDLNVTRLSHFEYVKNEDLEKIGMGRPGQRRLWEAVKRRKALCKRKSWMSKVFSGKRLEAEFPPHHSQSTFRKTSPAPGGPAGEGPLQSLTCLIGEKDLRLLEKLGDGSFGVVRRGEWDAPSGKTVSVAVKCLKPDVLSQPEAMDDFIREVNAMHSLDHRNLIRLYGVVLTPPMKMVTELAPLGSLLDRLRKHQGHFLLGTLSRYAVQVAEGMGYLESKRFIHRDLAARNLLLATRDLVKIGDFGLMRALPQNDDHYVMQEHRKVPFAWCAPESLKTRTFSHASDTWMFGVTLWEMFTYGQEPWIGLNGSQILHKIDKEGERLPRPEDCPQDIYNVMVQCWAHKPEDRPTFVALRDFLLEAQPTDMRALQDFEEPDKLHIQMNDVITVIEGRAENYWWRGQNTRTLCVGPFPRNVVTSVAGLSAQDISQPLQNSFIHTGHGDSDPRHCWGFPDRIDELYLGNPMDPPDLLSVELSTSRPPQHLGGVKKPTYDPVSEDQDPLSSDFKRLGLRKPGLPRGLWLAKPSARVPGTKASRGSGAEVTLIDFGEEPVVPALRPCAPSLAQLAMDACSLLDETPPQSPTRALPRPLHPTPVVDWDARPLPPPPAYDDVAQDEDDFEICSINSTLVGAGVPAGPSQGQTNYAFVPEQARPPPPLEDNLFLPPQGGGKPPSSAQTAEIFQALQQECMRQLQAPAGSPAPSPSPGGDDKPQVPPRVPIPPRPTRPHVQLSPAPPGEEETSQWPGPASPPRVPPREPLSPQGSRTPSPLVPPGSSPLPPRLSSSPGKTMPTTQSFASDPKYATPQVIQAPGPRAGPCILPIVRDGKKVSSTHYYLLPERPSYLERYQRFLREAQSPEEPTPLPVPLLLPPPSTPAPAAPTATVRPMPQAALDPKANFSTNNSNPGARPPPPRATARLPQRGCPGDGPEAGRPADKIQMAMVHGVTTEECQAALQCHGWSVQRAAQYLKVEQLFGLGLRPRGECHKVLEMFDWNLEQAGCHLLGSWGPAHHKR

[10] = target: Ribosomal protein S6 kinase beta-2 (Homo sapiens) (UniProt Q9UBS0); experiment: Inhibition of human RPS6KB2 at 1.82 nM by HotSpot assay relative to control
Chain of Ribosomal protein S6 kinase beta-2 (Homo sapiens) (Q9UBS0 whole entry): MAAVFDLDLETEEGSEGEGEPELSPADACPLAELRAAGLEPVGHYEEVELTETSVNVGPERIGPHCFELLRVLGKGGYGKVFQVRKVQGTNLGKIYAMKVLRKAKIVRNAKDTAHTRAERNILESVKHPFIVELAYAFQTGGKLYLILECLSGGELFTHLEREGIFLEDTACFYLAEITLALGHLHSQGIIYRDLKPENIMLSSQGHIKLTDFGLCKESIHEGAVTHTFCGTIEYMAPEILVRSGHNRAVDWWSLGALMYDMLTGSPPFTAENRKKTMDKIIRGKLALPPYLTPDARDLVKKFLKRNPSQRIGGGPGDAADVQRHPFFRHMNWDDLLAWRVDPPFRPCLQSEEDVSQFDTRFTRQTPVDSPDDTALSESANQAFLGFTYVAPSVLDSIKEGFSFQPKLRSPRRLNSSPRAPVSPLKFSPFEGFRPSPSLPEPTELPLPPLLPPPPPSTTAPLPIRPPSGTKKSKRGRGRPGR

inhibition [1] | inhibition [2] | inhibition [3] | inhibition [4] | inhibition [5] | inhibition [6] | inhibition [7] | inhibition [8] | inhibition [9] | inhibition [10] | SMILES
-8.77% | 2.76% | 3.19% | -0.6% | -6.35% | – | – | – | – | – | C[C@]1(O)C[C@@H](c2nc(-c3ccc4ccc(-c5ccccc5)nc4c3)c3c(N)nccn32)C1
– | – | – | – | – | 1.57% | -7.52% | -2.56% | 3.55% | -0.77% | C[C@@]1(C(=O)Nc2ccc(F)nc2)CCCN1c1nc(Nc2cc(C3CC3)n[nH]2)c2cccn2n1
